Patent publication US11965039B2, “Compstatin analogues and their medical uses” (priority 2018, dated 2024)
Positions of bridges follow the written chain, without caps; N, C: chain ends. Non-standard residues stand in square brackets, D forms with d. Residues, ends and D or L forms follow the SMILES beside them. Trp(1-Me) = Cn1cc(C[C@H](N)C(=O)O)c2ccccc21; Sar = CNCC(=O)O

Columns and labels:
[1] = test system: classical complement pathway; assay: In vitro haemolysis assay (inhibition of classical complement pathway); format: cell-based, human; details: human serum, sensitized sheep red blood cells; Table 3, given as upper bounds; read-out: IC50, inhibition of hemolysis
How it was run: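 Compound dilutions preincubated 15 min at room temperature with diluted human serum (titrated per batch for 70-90% maximal haemolysis), then antibody-sensitized sheep RBC (10^7/well) added for 30 min at 37 °C in Tris/casein buffer, pH 7.4. Stopped with EDTA; haemolysis read at 405 nm; IC50 by 4PL fit.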

[2] = Solubility test at 10 mg/mL (visual inspection and light scattering); format: physicochemical; details: for Solubility, Condition 1: Acetate pH 4; for Solubility, Condition 2: Acetate pH 5; for Solubility, Condition 3: Phosphate pH 6; for Solubility, Condition 4: Phosphate pH 7; for Solubility, Condition 5: Phosphate pH 7.5

| Compound | IC50 [1] [nM] | Solubility, Condition 1 [2] | Solubility, Condition 2 [2] | Solubility, Condition 3 [2] | Solubility, Condition 4 [2] | Solubility, Condition 5 [2] |
| --- | --- | --- | --- | --- | --- | --- |
| CC[C@H](C)[C@@H]1NC(=O)[C@@H](NC(=O)[C@H](Cc2ccccc2)NC(C)=O)CSSC[C@@H](C(=O)N[C@H](C(=O)NCC(=O)N[C@@H](C)C(=O)N[C@@H](CCC(=O)O)C(=O)N[C@@H](CO)C(N)=O)[C@@H](C)O)NC(=O)[C@H](CCCNC(=N)N)NC(=O)[C@H](Cc2c[nH]cn2)NC(=O)[C@H](CCC(=O)O)NC(=O)CN(C)C(=O)[C@H](Cc2c[nH]c3ccccc23)NC(=O)[C@H](CC(=O)O)NC(=O)[C@H](CCC(N)=O)NC(=O)[C@H](Cc2cn(C)c3ccccc23)NC1=O [Compound 72, Ac-FC(1)I[1-Me-Trp]QDW[Sar]EHRC(1)TGAES-NH2] (Ac-FCI[Trp(1-Me)]QDW[Sar]EHRCTGAES-NH2; disulfide 2-12) | < 100 | − (“−” denotes lack of solubility at the given condition, as UV absorbance at 340 nm exceeds 0.1 AU and/or it is visibly turbid or contains particles) | − (“−” denotes lack of solubility at the given condition, as UV absorbance at 340 nm exceeds 0.1 AU and/or it is visibly turbid or contains particles) | + (“+” denotes solubility at the given condition, as determined by UV absorbance being less than 0.1 AU at 340 nm and the sample being clear when manually inspected) | + (“+” denotes solubility at the given condition, as determined by UV absorbance being less than 0.1 AU at 340 nm and the sample being clear when manually inspected) | + (“+” denotes solubility at the given condition, as determined by UV absorbance being less than 0.1 AU at 340 nm and the sample being clear when manually inspected) |
| CC[C@H](C)[C@@H]1NC(=O)[C@@H](NC(=O)[C@H](Cc2ccccc2)NC(=O)[C@H](N)Cc2ccc(O)cc2)CSSC[C@@H](C(=O)N[C@H](C(=O)NCC(=O)N[C@@H](C)C(=O)N[C@@H](CCC(=O)O)C(=O)N[C@@H](CO)C(N)=O)[C@@H](C)O)NC(=O)[C@H](CCCNC(=N)N)NC(=O)[C@H](Cc2c[nH]cn2)NC(=O)[C@H](CCC(=O)O)NC(=O)CN(C)C(=O)[C@H](Cc2c[nH]c3ccccc23)NC(=O)[C@H](CC(=O)O)NC(=O)[C@H](CCC(N)=O)NC(=O)[C@H](Cc2cn(C)c3ccccc23)NC1=O [Compound 73, H-{d}YFC(1)I[1-Me-Trp]QDW[Sar]EHRC(1)TGAES-NH2] (H-[dY]FCI[Trp(1-Me)]QDW[Sar]EHRCTGAES-NH2; disulfide 3-13) | < 100 | + (“+” denotes solubility at the given condition, as determined by UV absorbance being less than 0.1 AU at 340 nm and the sample being clear when manually inspected) | − (“−” denotes lack of solubility at the given condition, as UV absorbance at 340 nm exceeds 0.1 AU and/or it is visibly turbid or contains particles) | − (“−” denotes lack of solubility at the given condition, as UV absorbance at 340 nm exceeds 0.1 AU and/or it is visibly turbid or contains particles) | + (“+” denotes solubility at the given condition, as determined by UV absorbance being less than 0.1 AU at 340 nm and the sample being clear when manually inspected) | + (“+” denotes solubility at the given condition, as determined by UV absorbance being less than 0.1 AU at 340 nm and the sample being clear when manually inspected) |
| CC[C@H](C)[C@@H]1NC(=O)[C@@H](NC(=O)[C@H](Cc2ccccc2)NC(=O)[C@H](CCC(=O)O)NC(=O)[C@H](CO)NC(C)=O)CSSC[C@@H](C(=O)N(C)CC(=O)NCC(=O)N[C@@H](C)C(=O)N[C@@H](CCC(=O)O)C(=O)N[C@@H](CO)C(N)=O)NC(=O)[C@H](CCCNC(=N)N)NC(=O)[C@H](Cc2c[nH]cn2)NC(=O)[C@H](CCC(=O)O)NC(=O)CNC(=O)[C@H](Cc2c[nH]c3ccccc23)NC(=O)[C@H](CC(=O)O)NC(=O)[C@H](CCC(N)=O)NC(=O)[C@H](Cc2cn(C)c3ccccc23)NC1=O [Compound 74] (Ac-SEFCI[Trp(1-Me)]QDWGEHRC[Sar]GAES-NH2; disulfide 4-14) | < 100 | − (“−” denotes lack of solubility at the given condition, as UV absorbance at 340 nm exceeds 0.1 AU and/or it is visibly turbid or contains particles) | + (“+” denotes solubility at the given condition, as determined by UV absorbance being less than 0.1 AU at 340 nm and the sample being clear when manually inspected) | + (“+” denotes solubility at the given condition, as determined by UV absorbance being less than 0.1 AU at 340 nm and the sample being clear when manually inspected) | + (“+” denotes solubility at the given condition, as determined by UV absorbance being less than 0.1 AU at 340 nm and the sample being clear when manually inspected) | + (“+” denotes solubility at the given condition, as determined by UV absorbance being less than 0.1 AU at 340 nm and the sample being clear when manually inspected) |
| CC[C@H](C)[C@@H]1NC(=O)[C@@H](NC(=O)[C@H](Cc2ccccc2)NC(=O)[C@H](CCC(=O)O)NC(=O)[C@H](CO)NC(C)=O)CSSC[C@@H](C(=O)N(C)CC(=O)N[C@@H](CCC(=O)O)C(=O)N[C@@H](C)C(N)=O)NC(=O)[C@H](CCCNC(=N)N)NC(=O)[C@H](Cc2c[nH]cn2)NC(=O)[C@H](CCC(=O)O)NC(=O)CN(C)C(=O)[C@H](Cc2c[nH]c3ccccc23)NC(=O)[C@H](CC(=O)O)NC(=O)[C@H](CCC(N)=O)NC(=O)[C@H](Cc2cn(C)c3ccccc23)NC1=O [Compound 76, Ac-SEFC(1)I[1-Me-Trp]QDW[Sar]EHRC(1)[Sar]EA-NH2] (Ac-SEFCI[Trp(1-Me)]QDW[Sar]EHRC[Sar]EA-NH2; disulfide 4-14) | < 100 | − (“−” denotes lack of solubility at the given condition, as UV absorbance at 340 nm exceeds 0.1 AU and/or it is visibly turbid or contains particles) | − (“−” denotes lack of solubility at the given condition, as UV absorbance at 340 nm exceeds 0.1 AU and/or it is visibly turbid or contains particles) | + (“+” denotes solubility at the given condition, as determined by UV absorbance being less than 0.1 AU at 340 nm and the sample being clear when manually inspected) | + (“+” denotes solubility at the given condition, as determined by UV absorbance being less than 0.1 AU at 340 nm and the sample being clear when manually inspected) | + (“+” denotes solubility at the given condition, as determined by UV absorbance being less than 0.1 AU at 340 nm and the sample being clear when manually inspected) |
| CC[C@H](C)[C@@H]1NC(=O)[C@@H](NC(=O)[C@H](Cc2ccccc2)NC(=O)[C@H](CCC(=O)O)NC(=O)[C@H](CO)NC(C)=O)CSSC[C@@H](C(=O)N[C@H](C(=O)N[C@@H](CCC(=O)O)C(=O)N[C@@H](C)C(N)=O)[C@@H](C)O)NC(=O)[C@H](CCCNC(=N)N)NC(=O)[C@H](Cc2c[nH]cn2)NC(=O)[C@H](CCC(=O)O)NC(=O)CN(C)C(=O)[C@H](Cc2c[nH]c3ccccc23)NC(=O)[C@H](CC(=O)O)NC(=O)[C@H](CCC(N)=O)NC(=O)[C@H](Cc2cn(C)c3ccccc23)NC1=O [Compound 77, Ac-SEFC(1)I[1-Me-Trp]QDW[Sar]EHRC(1)TEA-NH2] (Ac-SEFCI[Trp(1-Me)]QDW[Sar]EHRCTEA-NH2; disulfide 4-14) | < 100 | − (“−” denotes lack of solubility at the given condition, as UV absorbance at 340 nm exceeds 0.1 AU and/or it is visibly turbid or contains particles) | − (“−” denotes lack of solubility at the given condition, as UV absorbance at 340 nm exceeds 0.1 AU and/or it is visibly turbid or contains particles) | + (“+” denotes solubility at the given condition, as determined by UV absorbance being less than 0.1 AU at 340 nm and the sample being clear when manually inspected) | + (“+” denotes solubility at the given condition, as determined by UV absorbance being less than 0.1 AU at 340 nm and the sample being clear when manually inspected) | + (“+” denotes solubility at the given condition, as determined by UV absorbance being less than 0.1 AU at 340 nm and the sample being clear when manually inspected) |
| CC[C@H](C)[C@@H]1NC(=O)[C@@H](NC(=O)[C@H](Cc2ccccc2)NC(=O)[C@H](CCC(=O)O)NC(=O)[C@H](CO)NC(C)=O)CSSC[C@@H](C(=O)N(C)CC(=O)N[C@@H](CCC(=O)O)C(N)=O)NC(=O)[C@H](CCCNC(=N)N)NC(=O)[C@H](Cc2c[nH]cn2)NC(=O)[C@H](CCC(=O)O)NC(=O)CNC(=O)[C@H](Cc2c[nH]c3ccccc23)NC(=O)[C@H](CC(=O)O)NC(=O)[C@H](CCC(N)=O)NC(=O)[C@H](Cc2cn(C)c3ccccc23)NC1=O [Compound 78] (Ac-SEFCI[Trp(1-Me)]QDWGEHRC[Sar]E-NH2; disulfide 4-14) | < 100 | − (“−” denotes lack of solubility at the given condition, as UV absorbance at 340 nm exceeds 0.1 AU and/or it is visibly turbid or contains particles) | − (“−” denotes lack of solubility at the given condition, as UV absorbance at 340 nm exceeds 0.1 AU and/or it is visibly turbid or contains particles) | + (“+” denotes solubility at the given condition, as determined by UV absorbance being less than 0.1 AU at 340 nm and the sample being clear when manually inspected) | + (“+” denotes solubility at the given condition, as determined by UV absorbance being less than 0.1 AU at 340 nm and the sample being clear when manually inspected) | + (“+” denotes solubility at the given condition, as determined by UV absorbance being less than 0.1 AU at 340 nm and the sample being clear when manually inspected) |
